Measured values published in US8293764B2, “Compositions and methods for disruption of BRCA2-Rad51 interaction” (The Regents of the University of California, priority 2004, dated 2012).

System: g-H2AX foci in MCF-7 cells
Assay: IR-induced g-H2AX foci formation (immunostaining)
Type: cell-based
Conditions: 20 μM IBR2, 20 Gy
Description: Since interaction between BRCA2 and Rad51 appears to be crucial for the formation of IR-induced Rad51 foci, it was contemplated that IBR2 may mimic BRC repeats to disrupt the BRCA2-Rad51 interaction and to thereby diminish the IR-induced Rad51 foci formation. To test this possibility, the number of the MCF-7 cells that formed IR-induced Rad51 foci was measured after IBR2 treatment. […] To test whether this effect applies to other molecules involved in DSB repair, the inventors then examined the IR-induced foci formation of g-H2AX, which is histone H2AX phosphorylated at serine 139 by ATM for the recruitment of NBS1, 53BP and BRCA1, but not Rad51.
Immunostaining Rad51 and g-H2AX foci: MCF-7 cells were treated with 20 μM IBR2 for 7 or 19 hours and then g-irradiated at 20 Gy. Cells were incubated for an additional 5 hours with 20 μM IBR2, then fixed with 4% paraformaldehyde in PBS containing 0.5% Triton X-100. The fixed cells were incubated with a-Rad51 antibody (mAb 1F5) or a-g-H2AX antibody (Upstate). Rad51 and g-H2AX foci positive cells were subsequently counted as described (Chen et al., 1999).

In the case of `O=S(=O)(Cc1ccccc1)N1C=Cc2ccccc2C1c1c[nH]c2ccccc12` (stereo not shown) [IBR2, 2-(benzylsulfonyl)-1-(1H-indol-3-yl)-1,2-dihydroisoquinoline], the “IR-induced g-H2AX foci formation” value is reported as “no effect on g-H2AX foci formation”.
